In US11214803B2, “Modulators of YAP1 expression” (Ionis Pharmaceuticals, Inc., priority 2019, dated 2022):
Strand notation (5' to 3'): a small letter for the sugar, then the base; units joined by * are phosphorothioate-linked, units joined directly phosphodiester-linked; [ ] holds rarer units or linkages, { } end groups; capitals alone tell only the bases. k = constrained ethyl (cEt); [5mC] = 5-methylcytosine; d = 2'-deoxy (DNA)

Legend:
[1] = Tolerability in Balb/c mice, body and organ weights (Example 12); assay type: in vivo; conditions: male Balb/c mice, 50 mg/kg s.c. twice a week for four weeks (8 treatments), end of study (day 26)
Description: (§1) Groups of male Balb/c mice at 6-7 weeks of age (obtained from Taconic) were injected subcutaneously twice a week for four weeks (for a total of 8 treatments) with 50 mg/kg of modified oligonucleotides. One group of male Balb/c mice was injected with PBS. Mice were euthanized on day 26 post start of treatment (24 hours following the final administration).
Body weights of Balb/c mice were measured at the end of the study, and the average body weight for each group is presented in the table below. Modified oligonucleotides that caused any changes in organ weights outside the expected range for modified oligonucleotides were excluded from further studies.

[2] = Tolerability in Balb/c mice, plasma chemistry markers (Example 12); assay type: in vivo; conditions: 50 mg/kg subcutaneously twice a week for four weeks
Description: Balb/c mice were treated with modified oligonucleotides selected from studies described above and evaluated for changes in the levels of various plasma chemistry markers.
as §1

Yap1 mRNA [3] = experiment: Dose-dependent inhibition of human Yap1 in A-431 cells (Example 7, 10,000 cells per well, RTS36584); assay type: cell-based; conditions: free uptake
Outline: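 Yap1 mRNA was expressed as percent of untreated control after normalization to total RNA (RIBOGREEN), and IC50 was derived by log/linear linear regression. The read-out used primer-probe set RTS36584 roughly 48 hours after free-uptake dosing of oligonucleotides into A-431 cells (10,000 cells/well).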

Yap1 mRNA [4] = experiment: Dose-dependent inhibition of human Yap1 in SNU-449 cells (Example 9, RTS36584); assay type: cell-based; conditions: free uptake; for % UTC (Yap1 mRNA): approximately 48 hours
Outline: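 Read-out was Yap1 mRNA (primer-probe RTS36584) normalised to total RNA by RIBOGREEN, given as % of untreated cells, with IC50 fitted by linear regression of log/linear data. Oligonucleotides were dosed by free uptake to SNU-449 cells, 10,000/well, for ~48 h.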

[5] = Table 56, 15.6 nM, A-431 cells 10,000 cells per well, 48 hours
[6] = Table 56, 62.5 nM, A-431 cells 10,000 cells per well, 48 hours
[7] = Table 56, 4000.00 nM, A-431 cells 10,000 cells per well, 48 hours
[8] = Table 56, A-431 cells 10,000 cells per well
[9] = Table 59, 15.6 nM, A-431 cells 10,000 cells per well, 48 hours
[10] = Table 59, 62.5 nM, A-431 cells 10,000 cells per well, 48 hours
[11] = Table 59, 4000.00 nM, A-431 cells 10,000 cells per well, 48 hours
[12] = Table 59, A-431 cells 10,000 cells per well
[13] = Table 61, 15.6 nM, A-431 cells 10,000 cells per well, 48 hours
[14] = Table 61, 62.5 nM, A-431 cells 10,000 cells per well, 48 hours
[15] = Table 61, 4000.00 nM, A-431 cells 10,000 cells per well, 48 hours
[16] = Table 61, A-431 cells 10,000 cells per well
[17] = 15.6 nM, A-431 cells, 10,000 cells per well, approximately 48 hours
[18] = 62.5 nM, A-431 cells, 10,000 cells per well, approximately 48 hours
[19] = 4000.00 nM, A-431 cells, 10,000 cells per well, approximately 48 hours
[20] = A-431 cells, approximately 48 hours, linear regression on log/linear plot

Substance	Kidney weight [1] [g]	Liver weight [1] [g]	Spleen weight [1] [g]	body weight [1] [g]	ALT [2] [U/L]	AST [2] [U/L]	BUN [2] [mg/dL]	TBIL [2] [mg/dL]	further results
958736 (kG*kT*kG*dA*dT*dA*dT*dG*dG*dA*dT*dT*d[5mC]*kT*kG*kT; antisense) [compound 958736]	0.39	1.95	0.18	24	2439	1450	20	0.31	Yap1 mRNA, % UTC (Yap1 mRNA [3]; [5]): 83 % UTC; Yap1 mRNA, % UTC (Yap1 mRNA [3]; [6]): 38 % UTC; Yap1 mRNA, % UTC (Yap1 mRNA [3]; [7]): 7 % UTC; IC50 (Yap1 mRNA [3]; [8]): 0.06 µM
958498 (kG*kA*kG*dT*dA*dT*dG*dT*dG*dG*d[5mC]*dA*dA*kT*kA*kA; antisense) [compound 958498]	0.45	1.51	0.19	20	1441	3197	12	0.74	Yap1 mRNA, % UTC (Yap1 mRNA [3]; [9]): 70 % UTC; Yap1 mRNA, % UTC (Yap1 mRNA [3]; [10]): 21 % UTC; Yap1 mRNA, % UTC (Yap1 mRNA [3]; [11]): 2 % UTC; IC50 (Yap1 mRNA [3]; [12]): 0.02 µM
958553 (k[5mC]*k[5mC]*kA*dT*dT*dA*dT*dT*dA*d[5mC]*dT*d[5mC]*d[5mC]*kT*kG*kT; antisense) [compound 958553]	0.29	1.01	0.11	21	174	227	29	0.20	Yap1 mRNA, % UTC (Yap1 mRNA [3]; [9]): 68 % UTC; Yap1 mRNA, % UTC (Yap1 mRNA [3]; [10]): 23 % UTC; Yap1 mRNA, % UTC (Yap1 mRNA [3]; [11]): 5 % UTC; IC50 (Yap1 mRNA [3]; [12]): 0.03 µM
958729 (kG*kT*k[5mC]*dA*dG*dT*dT*dA*dT*d[5mC]*d[5mC]*dT*dA*kT*k[5mC]*kT; antisense) [compound 958729]	0.24	1.32	0.05	15	4368	4503	30	2.15	Yap1 mRNA, % UTC (Yap1 mRNA [3]; [13]): 73 % UTC; Yap1 mRNA, % UTC (Yap1 mRNA [3]; [14]): 44 % UTC; Yap1 mRNA, % UTC (Yap1 mRNA [3]; [15]): 4 % UTC; IC50 (Yap1 mRNA [3]; [16]): 0.05 µM
958590 (kA*kG*kG*dT*dA*dT*dA*dA*d[5mC]*dT*dG*dG*dG*k[5mC]*kA*kA) [compound 958590]	0.40	1.76	0.13	25	374	360	25	0.16	% UTC (Yap1 mRNA) (Yap1 mRNA [4]; 31.3 nM): 69 % UTC; % UTC (Yap1 mRNA) (Yap1 mRNA [4]; 125.0 nM): 52 % UTC; % UTC (Yap1 mRNA) (Yap1 mRNA [4]; 500.0 nM): 29 % UTC; % UTC (Yap1 mRNA) (Yap1 mRNA [4]; 2000.00 nM): 12 % UTC; IC50 (Yap1 mRNA [4]; linear regression on a log/linear plot): 0.1 µM; Yap1 mRNA, % UTC (Yap1 mRNA [3]; [17]): 71 % UTC; Yap1 mRNA, % UTC (Yap1 mRNA [3]; [18]): 33 % UTC; Yap1 mRNA, % UTC (Yap1 mRNA [3]; [19]): 4 % UTC; IC50 (Yap1 mRNA [3]; [20]): 0.03 µM
958454 (antisense kG*kG*kA*dA*dT*dG*dA*dG*d[5mC]*dT*d[5mC]*dG*dA*kA*k[5mC]*kA) [compound 958454]	0.25	0.68	0.03	14	1183	2162	45	6.53	Yap1 mRNA, % UTC (Yap1 mRNA [3]; [13]): 72 % UTC; Yap1 mRNA, % UTC (Yap1 mRNA [3]; [14]): 40 % UTC; Yap1 mRNA, % UTC (Yap1 mRNA [3]; [15]): 4 % UTC; IC50 (Yap1 mRNA [3]; [16]): 0.04 µM
958603 (kT*kG*kG*dT*dA*dT*dG*dA*dA*dT*dT*d[5mC]*dT*kG*kA*kA; antisense) [compound 958603]	0.36	1.80	0.20	21	1103	927	27	0.35	Yap1 mRNA, % UTC (Yap1 mRNA [3]; [9]): 70 % UTC; Yap1 mRNA, % UTC (Yap1 mRNA [3]; [10]): 27 % UTC; Yap1 mRNA, % UTC (Yap1 mRNA [3]; [11]): 4 % UTC; IC50 (Yap1 mRNA [3]; [12]): 0.03 µM
958375 (antisense kA*kA*kA*dG*d[5mC]*d[5mC]*dT*dT*dA*dG*dA*dG*dT*k[5mC]*kA*kA) [compound 958375]	0.39	2.00	0.12	23	2736	3013	22	0.43	Yap1 mRNA, % UTC (Yap1 mRNA [3]; [5]): 74 % UTC; Yap1 mRNA, % UTC (Yap1 mRNA [3]; [6]): 35 % UTC; Yap1 mRNA, % UTC (Yap1 mRNA [3]; [7]): 5 % UTC; IC50 (Yap1 mRNA [3]; [8]): 0.04 µM
958554 (kA*kA*k[5mC]*d[5mC]*dA*dT*dT*dA*dT*dT*dA*d[5mC]*dT*k[5mC]*k[5mC]*kT; antisense) [compound 958554]	0.28	1.05	0.15	22	583	1051	17	0.28	Yap1 mRNA, % UTC (Yap1 mRNA [3]; Table 60, 15.6 nM, A-431 cells 10,000 cells per well, 48 hours): 70 % UTC; Yap1 mRNA, % UTC (Yap1 mRNA [3]; Table 60, 62.5 nM, A-431 cells 10,000 cells per well, 48 hours): 34 % UTC; Yap1 mRNA, % UTC (Yap1 mRNA [3]; Table 60, 4000.00 nM, A-431 cells 10,000 cells per well, 48 hours): 4 % UTC; IC50 (Yap1 mRNA [3]; Table 60, A-431 cells 10,000 cells per well): 0.03 µM
958725 (kG*kT*k[5mC]*dA*dG*dT*dT*dA*dT*d[5mC]*d[5mC]*dT*dA*kT*k[5mC]*k[5mC]; antisense) [compound 958725]	0.21	1.23	0.04	15	3758	3758	31	0.91	Yap1 mRNA, % UTC (Yap1 mRNA [3]; [17]): 65 % UTC; Yap1 mRNA, % UTC (Yap1 mRNA [3]; [18]): 36 % UTC; Yap1 mRNA, % UTC (Yap1 mRNA [3]; [19]): 1 % UTC; IC50 (Yap1 mRNA [3]; [20]): 0.03 µM
958509 (kA*kT*kG*dT*dT*dA*dT*dG*dT*dT*dT*dG*dG*kG*kT*kG; antisense) [compound 958509]	0.27	1.50	0.13	20	1483	1627	26	0.31	Yap1 mRNA, % UTC (Yap1 mRNA [3]; [13]): 66 % UTC; Yap1 mRNA, % UTC (Yap1 mRNA [3]; [14]): 37 % UTC; Yap1 mRNA, % UTC (Yap1 mRNA [3]; [15]): 7 % UTC; IC50 (Yap1 mRNA [3]; [16]): 0.03 µM
958721 (kG*kT*kA*dG*dT*dA*dT*dA*dA*dT*dG*dA*dG*kT*kT*kA; antisense) [compound 958721]	0.33	1.45	0.12	24	57	114	28	0.17	Yap1 mRNA, % UTC (Yap1 mRNA [3]; [5]): 72 % UTC; Yap1 mRNA, % UTC (Yap1 mRNA [3]; [6]): 32 % UTC; Yap1 mRNA, % UTC (Yap1 mRNA [3]; [7]): 3 % UTC; IC50 (Yap1 mRNA [3]; [8]): 0.03 µM
